# What was measured:
# Format in all cases: cell-based
# [1] = target: T1, human PPARγ2 (Homo sapiens, UniProt P37231); experiment: Gal4-human PPARγ2 chimera luciferase transfection assay in COS cells; details: compound added at 1 μM, luciferase activity with rosiglitazone 1 μM given as 10.0, 16 hours
# T1 construct: with 182nd to 505th amino acids of human PPARγ2; expressed in transfected cells; host or cells: COS cells (African green monkey kidney)
# T1 sequence (P37231 182-505): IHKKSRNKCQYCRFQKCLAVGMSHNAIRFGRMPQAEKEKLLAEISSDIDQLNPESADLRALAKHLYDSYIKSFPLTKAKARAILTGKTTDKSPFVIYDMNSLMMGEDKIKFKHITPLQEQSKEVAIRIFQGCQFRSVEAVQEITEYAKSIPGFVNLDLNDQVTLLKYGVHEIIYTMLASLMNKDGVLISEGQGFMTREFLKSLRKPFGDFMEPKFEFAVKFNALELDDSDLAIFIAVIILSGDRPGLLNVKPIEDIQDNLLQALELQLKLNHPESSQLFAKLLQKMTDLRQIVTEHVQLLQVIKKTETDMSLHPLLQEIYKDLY
# Protocol: (§1) The PPAR receptor-activating effect of the compound of the present invention represented by the formula (1) was measured by a method described below (Proc. Natl. Acad. Sci., 92, pp 7297-7301, 1995; Journal of Lipid Research, 40, pp 2099-2110, 1999; and Proc. Natl. Acad. Sci, 98, pp 5306-5311, 2001).
# (§2) All the transfection assays were conducted using African green monkey kidney-derived cell line COS cells. The COS cells were cultured at 5% CO2 concentration using a DMEM medium containing 10% fetal bovine serum, glutamic acid, and an antibiotic as a culture solution.
# (§3) Gal4-human PPARs chimeric constructs which were fused the DNA-binding region of yeast transcription factor Gal4 with the ligand-binding region of human PPARs were used as an expression vector. A chimera where 1st to 147th amino acids of the Gal4 transcription factor were fused with 166th to 467th amino acids of human PPARα, with 182nd to 505th amino acids of human PPARγ2, or with 137th to 441st amino acids of human PPARδ was used as the chimera for each isoform. A reporter vector used was firefly luciferase whose promoter region contains five Gal4 recognition sequences. The plasmids were transfected into the cells by a method using Lipofectamine. In addition, a β-galactosidase expression vector was used as an internal standard.
# (§4) After the transfection into the cells, the medium was substituted with a DMEM medium (containing 0.2% serum) supplemented with the compound, in which the cells were then cultured for additional 16 hours. Thereafter, luciferase activity and β-galactosidase activity in the cell lysate were measured.
# (§5) In the present experiment, dimethyl sulfoxide (DMSO) was used in the dissolution and dilution of the compound. When the cells were treated, the DMSO concentration in the DMEM medium (containing 0.2% serum) was adjusted to 0.1%.
# [2] = target: T2, human PPARδ (Homo sapiens, UniProt Q03181); experiment: Gal4-human PPARδ chimera luciferase transfection assay in COS cells; details: compound added at 1 μM, luciferase activity with GW501516 1 μM given as 10.0, 16 hours
# T2 construct: with 137th to 441st amino acids of human PPARδ; expressed in transfected cells; host or cells: COS cells (African green monkey kidney)
# T2 sequence (Q03181 137-441): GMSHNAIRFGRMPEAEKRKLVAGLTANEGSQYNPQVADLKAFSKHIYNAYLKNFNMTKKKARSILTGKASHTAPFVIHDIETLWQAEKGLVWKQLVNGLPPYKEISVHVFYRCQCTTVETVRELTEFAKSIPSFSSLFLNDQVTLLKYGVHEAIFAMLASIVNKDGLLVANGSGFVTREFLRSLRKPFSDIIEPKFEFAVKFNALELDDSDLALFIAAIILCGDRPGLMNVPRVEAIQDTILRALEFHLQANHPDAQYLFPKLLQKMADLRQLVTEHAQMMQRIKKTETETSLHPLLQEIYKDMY
# Protocol: as §1, §2, §3, §4, §5
# [3] = target: T3, human PPARα (Homo sapiens, UniProt Q07869); experiment: Gal4-human PPARα chimera luciferase transfection assay in COS cells; details: compound added at 1 μM, luciferase activity with WY14643 10 μM given as 10.0, 16 hours
# T3 construct: 166th to 467th amino acids of human PPARα; expressed in transfected cells; host or cells: COS cells (African green monkey kidney)
# T3 sequence (Q07869 166-467): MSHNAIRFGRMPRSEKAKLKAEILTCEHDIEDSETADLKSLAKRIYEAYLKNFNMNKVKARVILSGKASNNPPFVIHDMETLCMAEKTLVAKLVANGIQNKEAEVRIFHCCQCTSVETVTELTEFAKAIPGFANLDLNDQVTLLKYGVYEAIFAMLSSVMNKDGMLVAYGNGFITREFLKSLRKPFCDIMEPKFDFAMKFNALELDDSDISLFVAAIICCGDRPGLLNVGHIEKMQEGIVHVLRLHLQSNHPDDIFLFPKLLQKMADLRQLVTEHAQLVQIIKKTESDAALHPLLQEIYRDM
# Protocol: as §1, §2, §3, §4, §5
hPPAR; Relative activity γ [1],hPPAR; Relative activity δ [2],hPPAR; Relative activity α [3],Compound
1.1,0.2,11.2,"Cc1c(CN(CCSc2ccccc2C(=O)O)c2nc3ccccc3o2)cccc1[N+](=O)[O-] [Example 73, 2-[2-[N-(Benzoxazol-2-yl)-N-(2-methyl-3-nitrobenzyl) ]aminoethylthio]benzoic acid]"
3.3,0.7,14.7,"O=C(O)c1ccccc1SCCCCCN(Cc1ccc(Cl)cc1)c1nc2ccccc2o1 [Example 98, 2-[5-[N-(Benzoxazol-2-yl)-N-4-chlorobenzyl]aminopentylthio]benzoic acid]"
3.5,1.4,12.0,"CCCCCCCCN(CCCCSc1ccccc1C(=O)O)c1nc2ccccc2o1 [Example 94, 2-[4-[N-(Benzoxazol-2-yl)-N-n-octyl]aminobutylthio]benzoic acid]"
2.7,0.8,18.7,"O=C(O)c1ccccc1SCCCCCN(CCCc1ccccc1)c1nc2ccccc2o1 [Example 104, 2-[5-[N-(BenzoxazoI-2-yl)-N-3-phenylpropyl]aminopentylthio]benzoic acid]"
2.4,0.0,13.1,"O=C(O)c1ccccc1SCCCCCCN(Cc1ccc(Cl)cc1)c1nc2ccccc2o1 [Example 106, 2-[6-[N-(Benzoxazol-2-yl)-N-4-chlorobenzyl]aminohexylthio]benzoic acid]"
2.5,4.2,25.3,"O=C(O)c1ccccc1SCCCCCN(CCCOc1ccccc1)c1nc2ccccc2o1 [Example 105, 2-[5-[N-(Benzoxazol-2-yl)-N-3-phenoxypropyl]aminopentylthio]benzoic acid]"

# The remaining lines, values behind:
Compound,hPPAR; Relative activity γ [1],hPPAR; Relative activity δ [2],hPPAR; Relative activity α [3]
"CCCN(CCCCSc1ccccc1C(=O)O)c1nc2ccccc2s1 [Example 110, 2-[4-[N-(Benzothiazol-2-yl)-N-n-propyl]aminobutylthio]benzoic acid]",2.0,0.2,11.0
"CCCCCCCN(CCCOc1cccc(C(=O)O)c1)c1nc2ccccc2o1 [Example 19, 3-[3-[N-(Benzoxazol-2-yl)-N-n-heptyl]aminopropoxy]benzoic acid]",1.7,0.5,15.1
"O=C(O)c1cccc(OCCCCN(CCOc2ccc(Cl)cc2)c2nc3ccccc3o2)c1 [Example 45, 3-[4-[N-(Benzoxazol-2-yl)-N-2-(4-chloropheoxyl)ethyl]aminobutoxy]benzoic acid]",3.5,0.6,12.3
"CN(CCCCCSc1ccccc1C(=O)O)c1nc2ccccc2o1 [Example 100, 2-[5-[N-(Benzoxazol-2-yl)-N-methyl]aminopentylthio]benzoic acid]",1.7,0.2,20.2
"CC(C)N(CCCCCSc1ccccc1C(=O)O)c1nc2ccccc2o1 [Example 70, 2-[5-[N-(Benzoxazol-2-yl)-N-isopropyl]aminopentylthio]benzoic acid]",1.4,0.2,12.4
"CCCCCCCN(CCCCOc1cccc(C(=O)O)c1)c1nc2ccccc2o1 [Example 46, 3-[4-[N-(Benzoxazol-2-yl)-N-n-heptyl]aminobutoxy]benzoic acid]",1.9,0.3,16.5
"O=C(O)c1ccccc1SCCN(CCCOc1ccccc1)c1nc2ccccc2o1 [Example 80, 2-[2-[N-(Benzoxazol-2-yl)-N-3-phenoxypropyl]aminoethylthio]benzoic acid]",1.6,0.2,17.8
"O=C(O)c1cccc(OCCCN(CCOc2ccc(Cl)cc2)c2nc3ccccc3o2)c1 [Example 6, 3-[3-[N-(Benzoxazol-2-yl)-N-2-(4-chlorophenoxy)ethyl]aminopropoxy]benzoic acid]",1.2,0.3,17.3
"CCCCCN(CCCCOc1cccc(C(=O)O)c1)c1nc2ccccc2o1 [Example 47, 3-[4-[N-(Benzoxazol-2-yl)-N-n-pentyl]aminobutoxy]benzoic acid]",1.2,0.3,10.4

# Reference: US7301033B2, “PPAR-activating compound” (Kowa Co., Ltd., priority 2005, dated 2007)
